Laboratory results: US20220259212A1, “INHIBITORS OF INDOLEAMINE 2,3-DIOXYGENASE AND/OR TRYPTOPHAN 2,3-DIOXYGENASE” (Idorsia Pharmaceuticals Ltd, priority 2019, published 2022)

Columns and labels:
[1] = target: T1, IDO1 in SKOV3 cells (Homo sapiens, UniProt P14902); experiment: Cell-based IDO inhibitory activity in IFNγ-stimulated SKOV3 cells (NFK + kynurenine by LCMS); settings: IFNγ 50 ng/ml, 200 uM L-tryptophan, 24 hours
T1 construct: SKOV3 cells (NCI, No. 0503405) which upregulate IDO1 after stimulation with IFNγ; host or cells: SKOV3 cells stimulated with IFNγ
T1 sequence (P14902 whole entry): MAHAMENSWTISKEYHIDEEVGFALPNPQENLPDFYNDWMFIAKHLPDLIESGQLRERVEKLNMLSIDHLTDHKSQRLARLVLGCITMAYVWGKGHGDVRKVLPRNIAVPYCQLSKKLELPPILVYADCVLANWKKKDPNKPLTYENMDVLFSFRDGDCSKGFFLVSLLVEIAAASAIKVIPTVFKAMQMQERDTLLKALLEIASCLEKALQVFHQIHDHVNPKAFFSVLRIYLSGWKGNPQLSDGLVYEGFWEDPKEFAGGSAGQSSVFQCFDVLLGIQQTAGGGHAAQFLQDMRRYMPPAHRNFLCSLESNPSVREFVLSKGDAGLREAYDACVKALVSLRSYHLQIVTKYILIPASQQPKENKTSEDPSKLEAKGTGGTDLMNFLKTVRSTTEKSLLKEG
Description: 3) Testing Compounds for IDO/TDO Inhibitory Activity and Toxicity in Cell-Based Assays
SW48 cells (ATCC, CCL-231) are used to measure compounds for TDO inhibitory activity and are routinely maintained in DMEM high glucose/GlutaMAX™/pyruvate 90% (v/v), FCS 10% (v/v), Penicilin/streptomycin 1% (v/v). SKOV3 cells (NCI, No. 0503405) which upregulate IDO1 after stimulation with IFNγ are used to measure compounds for IDO inhibitory activity. SKOV3 cells are routinely maintained in RPMI 90% (v/v), FCS 10% (v/v), Penicilin/streptomycin 1% (v/v). SW48 or SKOV3 cells are seeded in 384 well plates at a density of 8000 cells in 45 ul per well or 4000 cells in 45 ul per well, respectively. Plates are incubated at 37° C./5% CO2 for 24 hours. On the next day, 10 ul compound in serial dilutions (tested concentration range 10 uM-40 nM) and 200 uM L-tryptophan are added (SKV03 receive in addition IFNγ at a final concentration of 50 ng/ml). After 24 hours of incubation at 37° C./5% CO2, 3 ul of the supernatant per well is transferred to 25 ul H2O per well in a 384 deep well plate and 25 ul of the supernatant per well is transferred to waste. The SKOV3 and SW48 cell plates with 25 ul supernatant per well remaining are used to measure viability (see below). The 384 deep well plate containing 3 ul supernatant and 25 ul H2O per well are further processed for LCMS: After the addition of 100 ul L-tryptophan-(indole-d5) (Sigma 615862) at 200 nM in methanol, the 384 deep well plates are centrifuged for 10 minutes at 3220×g at 4° C., 75 ul H2O is added per well and plates centrifuged again for 10 minutes at 3220×g at 4° C. N-formylkynurenine and kynurenine are quantified by LCMS, normalized to the internal standard L-tryptophan-(indole-d5) and the sum is calculated. Samples with 0.2% DMSO (0% effect) and a TDO/IDO inhibitor (100% effect) are used as control samples to set the parameters for the non-linear regression necessary for the determination of the IC50 for each compound. For each compound concentration the percentage of activity compared to 0% and 100% effect is calculated as average±STDEV (each concentration measured in duplicate). IC50 values and curves are generated with XLfit software (IDBS) using Dose-Response One Site model 203. The calculated IC50 values may fluctuate depending on the daily cellular assay performance. Fluctuations of this kind are known to those skilled in the art. When compounds are measured multiple times, mean values are given.

[2] = target: T2, Recombinant human TDO comprising amino acids 19-407 (Homo sapiens, UniProt P48775); experiment: TDO2 enzymatic assay (NFK quantified by LCMS); assay type: biochemical; settings: 15 nM enzyme, 200 μM L-tryptophan, 30 min pre-incubation, pH7; mean if measured multiple times; read-out: hTDO activity (IC50 in nM)
T2 construct: human TDO comprising amino acids 19-407; hexahistidine (N); made in house; host or cells: E. coli
T2 sequence (P48775 19-406 limits assumed): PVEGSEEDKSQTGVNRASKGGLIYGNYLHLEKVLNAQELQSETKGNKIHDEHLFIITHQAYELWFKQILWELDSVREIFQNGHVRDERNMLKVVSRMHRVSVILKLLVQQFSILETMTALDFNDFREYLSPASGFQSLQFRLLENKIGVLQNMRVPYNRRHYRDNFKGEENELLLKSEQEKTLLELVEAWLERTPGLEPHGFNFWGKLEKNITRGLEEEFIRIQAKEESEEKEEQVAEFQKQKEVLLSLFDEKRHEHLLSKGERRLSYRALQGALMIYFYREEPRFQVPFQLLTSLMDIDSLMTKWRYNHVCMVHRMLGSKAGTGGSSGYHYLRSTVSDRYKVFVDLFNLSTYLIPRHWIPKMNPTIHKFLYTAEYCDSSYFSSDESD
Experimental: 2) Testing Compounds for TDO Inhibitory Activity in a TDO2 Enzymatic Assay:
Recombinant human TDO comprising amino acids 19-407 with a N-terminal hexahistidine tag expressed in E. coli and purified to homogeneity is incubated at a final concentration of 15 nM in assay buffer consisting of 75 mM phosphate buffer at pH7 supplemented with 100 μM ascorbic acid, 50 U/ml Catalase, 0.01% BSA, and 0.01% Tween 20 (protocol modified from Seegers et al, JBS 2014). Example compounds are serially diluted in DMSO, further diluted in phosphate buffer, and added to the reaction mixture at final concentrations ranging from 10 μM to 0.5 nM. The final DMSO concentration is 0.6%. Following a pre-incubation of 30 minutes at RT, the reaction is started by the addition of L-tryptophan at a final concentration of 200 μM in assay buffer. After 30 minutes of incubation at RT, 3 μL of the reaction mixture are transferred to a 384 deep well plate containing 25 μL of deionized water. 100 μl of 200 nM L-Tryptophan-(indole-d5) in cold 100% methanol are added followed by a 10 minutes centrifugation at 3220×g at 4° C. An additional 75 μL of deionized water are then added followed by a 10 minutes centrifugation at 3220×g at 4° C. The product of the reaction N′-Formylkynurenine (NFK) is quantified by LCMS and normalized to the L-Tryptophan-(indole-d5) signal. Samples with 0.6% DMSO (0% effect) and a TDO/IDO inhibitor (100% effect) are used as control samples to set the parameters for the non-linear regression necessary for the determination of the half-maximal inhibitory concentration (IC50) for each compound. For each compound concentration the percentage of activity compared to 0% and 100% effect is calculated as average±STDEV (each concentration measured in duplicate). IC50 values and curves are generated with XLfit software (IDBS) using Dose-Response One Site model 203 (four parameter logistic curve model). The calculated IC50 values may fluctuate depending on the daily assay performance. Fluctuations of this kind are known to those skilled in the art. When compounds are measured multiple times, mean values are given.

[3] = target: T3, Recombinant full-length human IDO1 (Homo sapiens, UniProt P14902); experiment: IDO1 enzymatic assay (NFK quantified by LCMS); assay type: biochemical; settings: 2 nM enzyme, 5 μM L-tryptophan, 30 min pre-incubation, pH6.5; mean if measured multiple times; read-out: hIDO activity (IC50 in nM)
T3 construct: Recombinant full-length human IDO1 with a N-terminal hexahistidine tag; hexahistidine (N); made in house; host or cells: E. coli
T3 sequence (P14902 whole entry): as the sequence (P14902 whole entry) above
Experimental: 1) Testing Compounds for IDO Inhibitory Activity in an IDO1 Enzymatic Assay:
Recombinant full-length human IDO1 with a N-terminal hexahistidine tag expressed in E. coli and purified to homogeneity is incubated at a final concentration of 2 nM in assay buffer consisting of 37.5 mM phosphate buffer at pH6.5 supplemented with 10 mM ascorbic acid, 0.45 μM methylene blue, 50 U/ml catalase, 0.01% BSA, and 0.01% Tween 20 (protocol modified from Seegers et al, JBS 2014). Example compounds are serially diluted in DMSO, further diluted in phosphate buffer, and added to the enzyme at final concentrations ranging from 10 μM to 0.5 nM. The final DMSO concentration is 0.6%. Following a pre-incubation of 30 minutes at RT, the reaction is started by the addition of L-tryptophan at a final concentration of 5 μM in assay buffer. After 30 minutes of incubation at RT, 3 μL of the 20 μl reaction mixture are transferred to a 384 deep well plate containing 25 μL of deionized water. 100 μl of 200 nM L-Tryptophan-(indole-d5) in cold 100% methanol are added followed by a 10 minutes centrifugation at 3220×g at 4° C. An additional 75 μL of deionized water are then added followed by a 10 minutes centrifugation at 3220×g at 4° C. The product of the reaction N′-Formylkynurenine (NFK) is quantified by LCMS and normalized to the L-Tryptophan-(indole-d5) signal. Samples with 0.6% DMSO (0% effect) and a TDO/IDO inhibitor (100% effect) are used as control samples to set the parameters for the non-linear regression necessary for the determination of the half-maximal inhibitory concentration (IC50) for each compound. For each compound concentration the percentage of activity compared to 0% and 100% effect is calculated as average±STDEV (each concentration measured in duplicate). IC50 values and curves are generated with XLfit software (IDBS) using Dose-Response One Site model 203 (four parameter logistic curve model). The calculated IC50 values may fluctuate depending on the daily assay performance. Fluctuations of this kind are known to those skilled in the art. When compounds are measured multiple times, mean values are given.

SMILES	IC50 [1]	IC50 [2]	IC50 [3]
COc1ccc(-n2cc([C@H](O)c3c(Cl)ccc4cncn34)nn2)cc1 [Example 30, (R)-(6-Chloro-imidazo[1,5-a]pyridin-5-yl)-[1-(4-methoxy-phenyl)-1H-[1,2,3]triazol-4-yl]-methanol]	52.4 nM	8600 nM	3.68 nM
OC(c1ccn(-c2ccccc2)n1)c1c(Cl)ccc2cncn12 (racemic) [Ref2, rac-(6-Chloro-imidazo[1,5-a]pyridin-5-yl)-(1-phenyl-1H-pyrazol-3-yl)-methanol, reference compound]	2940 nM	> 10200 nM	433 nM
O[C@@H](c1cn(-c2ccc(OCC3(F)COC3)c(F)c2)nn1)c1c(C2CC2)ncc2cncn12 [Example 28, (R)-(6-Cyclopropyl-imidazo[1,5-a]pyrazin-5-yl)-{1-[3-fluoro-4-(3-fluoro-oxetan-3-ylmethoxy)-phenyl]-1H-[1,2,3]triazol-4-yl}-methanol]	19.5 nM	> 10200 nM	6.28 nM
OC(c1cn(-c2ccccc2)nn1)c1c(Cl)ccc2cncn12 (racemic) [Example 1, rac-(6-Chloro-imidazo[1,5-a]pyridin-5-yl)-(1-phenyl-1H-[1,2,3]triazol-4-yl)-methanol]	246 nM	> 10200 nM	9.6 nM
CNc1ccc(-n2cc([C@H](O)c3c(C4CC4)ncc4cncn34)nn2)cc1 [Example 42, (R)-(6-Cyclopropyl-imidazo[1,5-a]pyrazin-5-yl)-[1-(4-methylamino-phenyl)-1H-[1,2,3]triazol-4-yl]-methanol]	199 nM	> 10200 nM	13.5 nM
Oc1ccc(-n2cc([C@H](O)c3c(C4CC4)ncc4cncn34)nn2)cc1Cl [Example 10a, 2-Chloro-4-{4-[(R)-(6-cyclopropyl-imidazo[1,5-a]pyrazin-5-yl)-hydroxy-methyl]-[1,2,3]triazol-1-yl}-phenol]	12.5 nM	> 10200 nM	2.93 nM
O[C@@H](c1cn(-c2ccc(N3CC4(COC4)C3)cc2)nn1)c1c(C2CC2)ncc2cncn12 [Example 45, (R)-(6-Cyclopropyl-imidazo[1,5-a]pyrazin-5-yl)-{1-[4-(2-oxa-6-aza-spiro[3.3]hept-6-yl)-phenyl]-1H-[1,2,3]triazol-4-yl}-methanol]	56.8 nM	> 10200 nM	15 nM
COCc1ccc(-n2cc([C@H](O)c3c(C4CC4)ncc4cncn34)nn2)cc1 [Example 24, (R)-(6-Cyclopropyl-imidazo[1,5-a]pyrazin-5-yl)-[1-(4-methoxymethyl-phenyl)-1H-[1,2,3]triazol-4-yl]-methanol]	399 nM	> 10200 nM	8.36 nM
Oc1ccc(-n2cc(C(O)c3c(C4CC4)ncc4cncn34)nn2)cc1 (racemic) [Example 15, rac-4-{4-[(6-Cyclopropyl-imidazo[1,5-a]pyrazin-5-yl)-hydroxy-methyl]-[1,2,3]triazol-1-yl}-phenol]	208 nM	9610 nM	13.1 nM
COc1ccc(-n2cc([C@H](O)c3c(C4CC4)ncc4cncn34)nn2)c(F)c1Cl [Example 33, (R)-[1-(3-Chloro-2-fluoro-4-methoxy-phenyl)-1H-[1,2,3]triazol-4-yl]-(6-cyclopropyl-imidazo[1,5-a]pyrazin-5-yl)-methanol]	127 nM	> 10200 nM	5.33 nM
Oc1ccc(-n2cc([C@H](O)c3c(C4CC4)ncc4cncn34)nn2)cc1F [Example 27, 4-{4-[(R)-(6-Cyclopropyl-imidazo[1,5-a]pyrazin-5-yl)-hydroxy-methyl]-[1,2,3]triazol-1-yl}-2-fluoro-phenol]	47.4 nM	> 10200 nM	5.6 nM
Cc1ccc2cncn2c1[C@@H](O)c1cn(-c2ccccc2)nn1 [Example 2a, (R)-(6-Methyl-imidazo[1,5-a]pyridin-5-yl)-(1-phenyl-1H-[1,2,3]triazol-4-yl)-methanol]	84.9 nM	> 10200 nM	4.29 nM
Oc1ccc(-n2cc([C@@H](O)c3c(C4CC4)ccc4cncn34)nn2)cc1Cl [Example 7b, 2-Chloro-4-{4-[(S)-(6-cyclopropyl-imidazo[1,5-a]pyridin-5-yl)-hydroxy-methyl]-[1,2,3]triazol-1-yl}-phenol]	703 nM	> 10200 nM	361 nM
CN1CCc2cc(-n3cc([C@H](O)c4c(C5CC5)ncc5cncn45)nn3)ccc21 [Example 47, (R)-(6-Cyclopropyl-imidazo[1,5-a]pyrazin-5-yl)-[1-(1-methyl-2,3-dihydro-1H-indol-5-yl)-1H-[1,2,3]triazol-4-yl]-methanol]	145 nM	> 10200 nM	7.76 nM
